Patent US5461049A, “Amide tetrazole ACAT inhibitors” (Warner-Lambert Company, priority 1994, dated 1995)
pIC50: −log10 of the molar value.

Assays:
[1] = target: T1, acyl-CoA: cholesterol acyltransferase (ACAT) (Rattus norvegicus, UniProt Q7TQM4); assay: ACAT inhibition in vitro (LAI): radiolabeled cholesterol oleate formed from radiolabeled oleic acid in rat liver microsomes; assay type: biochemical; conditions: concentration required to inhibit the activity of the enzyme by 50%
T1 construct: tissue preparation containing rat liver microsomes; from tissue; host or cells: rat liver microsomes
T1 sequence (Q7TQM4 1-524): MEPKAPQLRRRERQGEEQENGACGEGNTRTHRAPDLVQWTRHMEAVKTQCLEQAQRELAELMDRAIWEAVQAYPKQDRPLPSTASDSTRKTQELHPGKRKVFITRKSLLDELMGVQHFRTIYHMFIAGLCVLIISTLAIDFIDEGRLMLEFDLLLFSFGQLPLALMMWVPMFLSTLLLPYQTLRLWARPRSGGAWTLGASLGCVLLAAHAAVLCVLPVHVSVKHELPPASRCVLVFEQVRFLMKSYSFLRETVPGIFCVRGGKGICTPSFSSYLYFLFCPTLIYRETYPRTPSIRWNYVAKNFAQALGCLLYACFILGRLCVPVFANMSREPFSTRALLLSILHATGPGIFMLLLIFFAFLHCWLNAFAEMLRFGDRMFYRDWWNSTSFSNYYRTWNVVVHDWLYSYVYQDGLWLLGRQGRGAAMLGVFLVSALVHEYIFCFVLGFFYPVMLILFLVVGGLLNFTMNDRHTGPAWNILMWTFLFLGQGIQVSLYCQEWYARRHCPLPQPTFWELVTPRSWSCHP
Description: The ability of representative compounds of the present invention to inhibit ACAT was measured using an in vitro test more fully described in F. J. Field and R. G. Salone, Biochemica et Biophysica Acta, 712:557-570 (1982). The test assesses the ability of a test compound to inhibit the acylation of cholesterol by oleic acid by measuring the amount of radiolabeled cholesterol oleate formed from radiolabeled oleic acid in a tissue preparation containing rat liver microsomes (designated LAI).

[2] = APCC in vivo screen: change in total cholesterol in rats on high fat, high cholesterol diet; design: species or system male Sprague-Dawley rats; conditions: Rattus norvegicus, po, 16 h; 30 mg/kg by gavage, single dose at 4 PM, sacrificed at 8 AM; 5.5% peanut oil, 1.5% cholesterol, 0.5% cholic acid diet; vs control animals given vehicle and diet only; read-out: APCC (% change in TC)
Text: In one in vivo screen designated APCC, male Sprague-Dawley rats (200-225 g body weight) were randomly divided into treatment groups and dosed at 4 PM with either vehicle (CMC/Tween) or suspensions of invention compounds in vehicle. The normal chow diet was then replaced with a high fat, high cholesterol diet (5.5% peanut oil, 1.5% cholesterol, and 0.5% cholic acid). The rats consumed this diet ad libitum during the night and were sacrificed at 8 AM to obtain blood samples for cholesterol analysis using standard procedures. Statistical differences between mean cholesterol values for the same vehicle were determined using analysis of variance followed by Fisher's least significant test. The results of this trial for representative compounds of the present invention also appear in Table I as the percent change in total cholesterol (%TC) from control animals given vehicle and diet only. All compounds in the APCC test reported in Table 1 were administered by garage at 30 mg/kg.

Compound | pIC50 [1] | change in vivo at 30 mg/kg [2]
CCCCCCCCCCCCn1nnc(C(=NNc2ccccc2)C(=O)Nc2c(C(C)C)cccc2C(C)C)n1 [Example 28, N-(2,6-diisopropylphenyl)-2-(2-dodecyl-2H-tetrazol-5-yl)-2-phenylhydrazono-acetamide] | 6.82 | -18%
CCCCCCCCCCCCn1nnc(/C(=N/OCC)C(=O)Nc2c(C(C)C)cccc2C(C)C)n1 [Example 23, Z-N-(2,6-diisopropylphenyl) -2-(2-dodecyl-2H-tetrazol-5-yl)-2-ethoxyimino-acetamide] | 8.70 | -74%
CCCCCCCCCCCCn1nnc(C(C(=O)Nc2c(C(C)C)cc(C(C)C)cc2C(C)C)N2CCCC2)n1 (racemic) [Example 18, (±)-N-2,4,6-triisopropylphenyl-2-(2-dodecyl-2H-tetrazol-5-yl)-2-pyrrolidin-1-yl-acetamide] | 6.65 | -20%
CCCCCCCCCCCCn1nnc(C(NC2CCCCC2)C(=O)Nc2c(C(C)C)cccc2C(C)C)n1 (racemic) [Example 36, (±)-N-(2,6-diisopropylphenyl)-2-(2-dodecyl-2H-tetrazol-5-yl)-2-cyclohexylamino-acetamide] | 6.67 | 
CCCCCCCCCCCCn1nnc(C(C(=O)Nc2c(C(C)C)cccc2C(C)C)n2ccnc2)n1 (racemic) [Example 5, (±)-N-(2,6-Diisopropylphenyl)-2-(2-dodecyl-2H-tetrazol-5-yl) -2-imidazol-1-yl-acetamide] | 6.67 | -46%
CCCCCCCCCCCCn1nnc(C(C(=O)Nc2c(C(C)C)cccc2C(C)C)N2CCSCC2)n1 (racemic) [Example 1, (±)-N-(2,6-diisopropylphenyl) -2-(2-dodecyl-2H-tetrazol-5-yl) -2-thiomorpholin-4-yl-acetamide] | 7.92 | -56%
CCCCCCCCCCCCn1nnc(C(=NN(C)C)C(=O)Nc2c(C(C)C)cccc2C(C)C)n1 [Example 29, N-(2,6-diisopropylphenyl)-2-(2-dodecyl-2H-tetrazol-5-yl)-2-dimethylhydrazono-acetamide] | 7.37 | -70%
CCCCCCCCCCCCn1nnc(C(C(=O)Nc2c(C(C)C)cccc2C(C)C)N(CCO)CCO)n1 (racemic) [Example 8, (±)-2-[Bis-(2-hydroxyethyl)-amino]-N-(2,6-diisopropylphenyl) -2-(2-dodecyl-2H-tetrazol-5-yl)-acetamide] | 6.41 | -11%
CCCCCCCCCCC(C)n1nnc(/C(=N\OC)C(=O)Nc2c(C(C)C)cccc2C(C)C)n1 (stereo not shown) [Example 16, E-N-(2,6-Diisopropylphenyl)-2-(2-(1-methylundecyl) -2H-tetrazol-5-yl)-2-methoxyimino-acetamide] | 8.52 | -67%
CCCCCCCCCCCCn1nnc(C(C(=O)Nc2c(C(C)C)cccc2C(C)C)N(CC)CC)n1 (racemic) [Example 7, (±)-2-Diethylamino-N-(2,6-diisopropylphenyl) -2-(2-dodecyl-2H-tetrazol-5-yl)-acetamide] | 7.49 | -28%
CCCCCCCCCCCCn1nnc(C(NC(C)=O)C(=O)Nc2c(C(C)C)cccc2C(C)C)n1 (racemic) [Example 32, (±)-N-(2,6-diisopropylphenyl)-2-(2-dodecyl-2H-tetrazol-5-yl)-2-acetylamino-acetamide] | < 6.00 | -9%
CCCCCCCCCCCCn1nnc(C(=NN)C(=O)Nc2c(C(C)C)cccc2C(C)C)n1 [Example 27, N-(2,6-diisopropylphenyl)-2-(2 dodecyl-2H-tetrazol-5-yl)-2-hydrazono-acetamide] | 6.29 | 
CCCCCCCCCCCCn1nnc(C(C(=O)Nc2c(C(C)C)cccc2C(C)C)N2CCCCC2)n1 (racemic) [Example 3, (±)-N-(2,6-Diisopropylphenyl)-2-(2-dodecyl-2H-tetrazol-5-yl)-2-piperidin-1-yl-acetamide] | 7.82 | -47%
CCCCCCCCCCCCn1nnc(C(C(=O)Nc2c(C(C)C)cccc2C(C)C)N(C)C)n1 (racemic) [Example 9, (±)-N-(2,6-Diisopropylphenyl)-2-dimethylamino-(2-dodecyl-2H-tetrazol-5-yl)-acetamide] | 7.40 | -40%
CCCCCCCCCCCCn1nnc(C(C(=O)Nc2c(C(C)C)cccc2C(C)C)N2CCN(C)CC2)n1 (racemic) [Example 6, (±)-N-(2,6-Diisopropylphenyl)-2-(2-dodecyl-2-tetrazol-5-yl)-2-(4-methyl-piperazin-1-yl)-acetamide] | 7.07 | -51%
CCCCCCCCCCCCn1nnc(/C(=N\OCC)C(=O)Nc2c(C(C)C)cccc2C(C)C)n1 [Example 24, E-isomer of N-(2,6-diisopropylphenyl)-2-(2-dodecyl-2H-tetrazol-5-yl)-2-ethoxyimino-acetamide] | 7.31 | -31%
CCCCCCCCCCCCn1nnc(C(N)C(=O)Nc2c(C(C)C)cccc2C(C)C)n1 (racemic) [Example 10, (±)-2-Amino-N-(2,6-diisopropylphenyl)-2-(2-dodecyl-2H-tetrazol-5-yl)-acetamide] | 7.03 | -51%
CCCCCCCCCCCCn1nnc(C(=NO)C(=O)Nc2c(C(C)C)cccc2C(C)C)n1 [Example 12, N-(2,6-diisopropylphenyl)-2-(2-dodecyl-2H-tetrazol-5-yl)-2-hydroxyimino-acetamide] | 7.54 | 
CCCCCCCCCCCCn1nnnc1/C(=N\OCC)C(=O)Nc1c(C(C)C)cccc1C(C)C [Example 41, E-N-(2,6-Diisopropylphenyl)-2-(1-dodecyl-1H-tetrazol-5-yl)-2-ethoxyimino-acetamide] | 7.60 | -65%
CCCCCCCCCCCCn1nnc(/C(=N\OC)C(=O)Nc2c(C(C)C)cccc2C(C)C)n1 [Example 13, E-N-(2,6-Diisopropylphenyl)-2-(2-dodecyl-2H-tetrazol-5-yl)-2-methoxyimino-acetamide] | 8.70 | -43%
CCCCCCCCCCCCn1nnc(C(C(=O)Nc2c(C(C)C)cccc2C(C)C)N2CCCC2)n1 (racemic) [Example 4, (±) -N-(2,6-Diisopropylphenyl)-2-(2-dodecyl-2H-tetrazol-5-yl) -2-pyrrolidinyl-1-yl-acetamide] | 8.05 | -59%
CCCCCCCCCCCCn1nnc(C(C(=O)Nc2c(C(C)C)cccc2C(C)C)N2CCOCC2)n1 (racemic) [Example 2, (±)-N-(2,6-Diisopropylphenyl)-2-(2-dodecyl-2H-tetrazol-5-yl)-2-morpholino-4-yl-acetamide] | 7.74 | -57%
CCCCCCCCCCCCn1nnc(C(=O)C(=O)Nc2c(C(C)C)cccc2C(C)C)n1 [Example 11, N-(2,6-diisopropylphenyl)-2-(2-dodecyl-2H-tetrazol-5-yl)-2-oxo-acetamide] | 6.87 | -50%
CCCCCCCCCCCCn1nnc(/C(=N\OC)C(=O)Nc2c(OC)cc(OC)cc2OC)n1 [Example 15, E-2-(2-Dodecyl-2H-tetrazol-5-yl)-2-methoxyimino -N-(2,4,6-trimethoxyphenyl)-acetamide] | 7.55 | -70%
CCCCCCCCCCCCn1nnc(C(C(=O)Nc2c(OC)cc(OC)cc2OC)N2CCCC2)n1 (racemic) [Example 17, (±)-N-(2,4,6-trimethoxyphenyl) -2-(2-dodecyl-2H-tetrazol-5-yl)-2-pyrrolidin-1-yl-acetamide] | 7.40 | -67%
CCCCCCCCCCCCn1nnc(/C(=N/OC)C(=O)Nc2c(C(C)C)cccc2C(C)C)n1 [Example 14, Z-N-(2,6-diisopropylphenyl) -2-(2-dodecyl-2H-tetrazol-5-yl)-2-methoxyiminoacetamide] | 7.40 | -19%
